# Results taken from patent publication US10202367B2, “Heterocyclic compounds and methods of use thereof” (priority 2014, dated 2019).
# Test system: HCVcc-RLuc
# Assay: HCVcc-RLuc assay, combination of compound 3 with anti-HCV drugs (CalcuSyn / MacSynergy II)
# Type: cell-based, Hepatitis C virus
# Conditions: not given
Compound,CalcuSyn CI value (combination index),CalcuSyn synergy volume (level of synergy),MacSynergy synergy volume (level of synergy)
CCC[C@H](NC(=O)[C@@H]1[C@H]2CCC[C@H]2CN1C(=O)[C@@H](NC(=O)[C@@H](NC(=O)c1cnccn1)C1CCCCC1)C(C)(C)C)C(=O)C(=O)NC1CC1 [Telaprevir],0.775,++ (key: +/−: nearly additive (0.9 < CI < 1.1); ++: moderate synergy (0.7 < CI < 0.85); +++: synergy (0.3 < CI < 0.7)),+++ (key: ++: moderate synergy (5 < log volume < 9); +++: strong synergy (log volume > 9))
IFN-α,0.545,+++ (key: +/−: nearly additive (0.9 < CI < 1.1); ++: moderate synergy (0.7 < CI < 0.85); +++: synergy (0.3 < CI < 0.7)),–

# Same assay, conditions: tested drug combined with compound 3 (SID 144187742)
row,Compound,CalcuSyn synergy volume (level of synergy)
1,C[C@@]1(O)[C@H](O)[C@@H](CO)O[C@H]1n1ccc(N)nc1=O [2′-C-methylcytidine],+/− (nearly additive (0.9 < CI < 1.1))

# Same assay, conditions: tested drug combined with compound 3 (SID 144187742) at or near their EC50 values; mean ± SEM, n ≥ 6
row,Compound,CalcuSyn CI value (combination index)
1,C[C@@]1(O)[C@H](O)[C@@H](CO)O[C@H]1n1ccc(N)nc1=O [2′-C-methylcytidine],1.10

# Same assay, conditions: tested drug combined with compound 3; Bliss independence model, MacSynergy II
row,Compound,MacSynergy synergy volume (level of synergy)
1,C[C@@]1(O)[C@H](O)[C@@H](CO)O[C@H]1n1ccc(N)nc1=O [2′-C-methylcytidine],+++ (strong synergy (log volume > 9))

# Test system: not listed separately
# Assay: Aqueous solubility in PBS
# Type: physicochemical
# Conditions: not given
row,Compound,Sol.
1,Cc1ccccc1-c1nc(CN2CCC(C(=O)NCCCN3C[C@H](C)C[C@H](C)C3)CC2)c(C)o1 [Compound 63],54.8 µg/mL
2,CCc1ccccc1-c1nc(CN2CCC(C(=O)NCCCN3C[C@H](C)C[C@H](C)C3)CC2)c(C)o1 [Compound 17],55.9 µg/mL
3,Cc1ccccc1-c1nc(CN2CCC(C(=O)NCCCN3CCCC(C(C)C)C3)CC2)c(C)o1 (stereo not drawn) [Compound 52],>71 µg/mL
4,Cc1oc(-c2c(F)cccc2F)nc1CN1CCC(C(=O)NCCCN2C[C@H](C)C[C@H](C)C2)CC1 [Compound 30],>72.0 µg/mL
5,Cc1ccccc1-c1nc(CN2CCC(C(=O)NCCN3C[C@H](C)C[C@H](C)C3)CC2)c(C)o1 [Compound 20],>67.0 µg/mL
6,Cc1ccc2ccccc2c1-c1nc(CN2CCC(C(=O)NCCCN3C[C@H](C)C[C@H](C)C3)CC2)c(C)o1 [Compound 39],>76.0 µg/mL
7,Cc1ccc(-c2nc(CN3CCC(C(=O)NCCCN4C[C@H](C)C[C@H](C)C4)CC3)c(C)o2)cc1C [Compound 22],>71.0 µg/mL
8,Cc1ccccc1-c1nc(CN2CCC(C(=O)NCCCN3CCC(C)(C)CC3)CC2)c(C)o1 [Compound 50],>69.0 µg/mL
9,Cc1oc(-c2ccccc2Cl)nc1CN1CCC(C(=O)NCCCN2C[C@H](C)C[C@H](C)C2)CC1 [Compound 15],>72.0 µg/mL
10,Cc1oc(-c2c(F)cccc2Cl)nc1CN1CCC(C(=O)NCCCN2C[C@H](C)C[C@H](C)C2)CC1 [Compound 33],>75.0 µg/mL
11,Cc1ccccc1-c1nc(CN2CCC(C(=O)N3CCN(C4CCN(C)CC4)CC3)CC2)c(C)o1 [Compound 13],>71.0 µg/mL
12,Cc1ccc(-c2nc(CN3CCC(C(=O)NCCCN4C[C@H](C)C[C@H](C)C4)CC3)c(C)o2)c(C)c1 [Compound 32],>71.0 µg/mL
13,Cc1oc(-c2c(Cl)cccc2Br)nc1CN1CCC(C(=O)NCCCN2C[C@H](C)C[C@H](C)C2)CC1 [Compound 41],>83.0 µg/mL
14,Cc1oc(-c2cccc(Cl)c2)nc1CN1CCC(C(=O)NCCCN2C[C@H](C)C[C@H](C)C2)CC1 [Compound 24],>72.0 µg/mL
15,Cc1ccccc1-c1nc(CN2CCC(C(=O)NCCCN3C[C@H](C)C[C@H](C)C3)CC2)c(C)o1 [Compound 26],>69.0 µg/mL
16,COc1cccc(C)c1-c1nc(CN2CCC(C(=O)NCCCN3C[C@H](C)C[C@H](C)C3)CC2)c(C)o1 [Compound 45],>73.0 µg/mL
17,Cc1ccccc1-c1nc(CN2CCC(C(=O)NCCCN3C[C@H](C)C[C@H](C)C3)CC2)c(C)o1 [Compound 27],>69.0 µg/mL
18,COc1cccc(Br)c1-c1nc(CN2CCC(C(=O)NCCCN3C[C@H](C)C[C@H](C)C3)CC2)c(C)o1 [Compound 40],>83.0 µg/mL
19,Cc1ccccc1-c1nc(CN2CCC(C(=O)NCCCCN3C[C@H](C)C[C@H](C)C3)CC2)c(C)o1 [Compound 21],>71.0 µg/mL
20,Cc1ccc(-c2nc(CN3CCC(C(=O)NCCCN4C[C@H](C)C[C@H](C)C4)CC3)c(C)o2)cc1 [Compound 19],>69.0 µg/mL
21,Cc1cccc(Cl)c1-c1nc(CN2CCC(C(=O)NCCCN3CCCC(C)C3)CC2)c(C)o1 (stereo not drawn) [Compound 59],52.6 µg/mL
22,Cc1ccccc1-c1nc(CN2CCC(C(=O)NCCCN3C[C@H](C)C[C@H](C)C3)CC2)c(C)o1 [Compound 25],>69.0 µg/mL
23,Cc1ccccc1-c1nc(CN2CCC(C(=O)NCCCN3CCC(C(C)C)CC3)CC2)c(C)o1 [Compound 5],>71.0 µg/mL
24,Cc1ccccc1-c1nc(CN2CCC(C(=O)NCCCN3C[C@H](C)C[C@H](C)C3)CC2)c(C)o1 [Compound 28],54.8 µg/mL
25,Cc1cccc(Cl)c1-c1nc(CN2CCC(C(=O)NCCCN3CCC(C)(C)CC3)CC2)c(C)o1 [Compound 60],>74 µg/mL
26,Cc1ccccc1-c1nc(CN2CCC(C(=O)NCCCN3C[C@H](C)C[C@H](C)C3)CC2)c(C)s1 [Compound 65],>71.0 µg/mL
27,Cc1cccc(F)c1-c1nc(CN2CCC(C(=O)NCCCN3C[C@H](C)C[C@H](C)C3)CC2)c(C)o1 [Compound 46],>72.0 µg/mL

row,Compound,Sol.
1,Cc1ccc2ccccc2c1-c1nc(CN2CCC(C(=O)NCCCN3C[C@H](C)C[C@H](C)C3)CC2)c(C)o1 [Compound 62],>76.1 µg/mL
2,Cc1oc(-c2cccc3ccccc23)nc1CN1CCC(C(=O)NCCCN2C[C@H](C)C[C@H](C)C2)CC1 [Compound 31],>74.0 µg/mL
3,Cc1cccc(C)c1-c1nc(CN2CCC(C(=O)NCCCN3C[C@H](C)C[C@H](C)C3)CC2)c(C)o1 [Compound 23],55.9 µg/mL
4,Cc1cc(C)cc(-c2nc(CN3CCC(C(=O)NCCCN4C[C@H](C)C[C@H](C)C4)CC3)c(C)o2)c1 [Compound 4],>71.0 µg/mL
5,Cc1oc(-c2ccc(Cl)cc2)nc1CN1CCC(C(=O)NCCCN2C[C@H](C)C[C@H](C)C2)CC1 [Compound 16],>72.0 µg/mL
6,Cc1ccccc1-c1nc(CN2CCC(C(=O)NCCCN3CCC(C)CC3)CC2)c(C)o1 [Compound 10],>67.0 µg/mL
7,Cc1oc(-c2c3ccccc3cc3ccccc23)nc1CN1CCC(C(=O)NCCCN2C[C@H](C)C[C@H](C)C2)CC1 [Compound 36],62.1 µg/mL
8,Cc1ccccc1-c1nc(CN2CCC(C(=O)NCCCN3C[C@H](C)C[C@H](C)C3)CC2)c(C)o1 [Compound 29],>69.0 µg/mL
9,Cc1cccc(Cl)c1-c1nc(CN2CCC(C(=O)NCCCN3CCC(C(C)C)CC3)CC2)c(C)o1 [Compound 61],>76 µg/mL
10,Cc1oc(-c2c(Cl)cccc2C(F)(F)F)nc1CN1CCC(C(=O)NCCCN2C[C@H](C)C[C@H](C)C2)CC1 [Compound 44],65.1 µg/mL
11,Cc1ccccc1-c1nc(CN2CCC(C(=O)NCCCN3CC4CCCC(C4)C3)CC2)c(C)o1 [Compound 54],> .71 µg/mL
12,Cc1ccccc1-c1nc(CN2CCC(C(=O)NCCCN3C[C@H](C)C[C@H](C)C3)CC2)c(C)o1 [Compound 64],>69.0 µg/mL
13,Cc1cc(-c2nc(CN3CCC(C(=O)NCCCN4C[C@H](C)C[C@H](C)C4)CC3)co2)ccc1F [Compound 70],>70 µg/mL
14,Cc1ccccc1-c1nc(CN2CCC(C(=O)NCCCN3CCCCC3)CC2)c(C)o1 [Compound 9],>65.0 µg/mL
15,Cc1ccccc1-c1nc(CN2CCC(C(=O)NCCCN3[C@H](C)CCC[C@@H]3C)CC2)c(C)o1 [Compound 51],>69.0 µg/mL
16,Cc1ccccc1-c1nc(CN2CCC(C(=O)N3CCN(CCN(C)C)CC3)CC2)c(C)o1 [Compound 14],>67.0 µg/mL
17,Cc1ccccc1-c1nc(CN2CCC(C(=O)NCCCN3C[C@H](C)C[C@@H](C)C3)CC2)c(C)o1 [Compound 47],>69.0 µg/mL
18,Cc1ccc(C)c(-c2nc(CN3CCC(C(=O)NCCCN4C[C@H](C)C[C@H](C)C4)CC3)c(C)o2)c1 [Compound 34],56.1 µg/mL
19,COc1cccc(F)c1-c1nc(CN2CCC(C(=O)NCCCN3C[C@H](C)C[C@H](C)C3)CC2)c(C)o1 [Compound 38],>74.0 µg/mL
20,Cc1cc(-c2nc(CN3CCC(C(=O)NCCCN4CCC(C(C)C)CC4)CC3)co2)ccc1F [Compound 71],>72 µg/mL
21,COc1cccc(OC)c1-c1nc(CN2CCC(C(=O)NCCCN3C[C@H](C)C[C@H](C)C3)CC2)c(C)o1 [Compound 37],>76.0 µg/mL
22,Cc1cccc(-c2nc(CN3CCC(C(=O)NCCCN4C[C@H](C)C[C@H](C)C4)CC3)c(C)o2)c1 [Compound 18],>69.0 µg/mL
23,Cc1ccccc1-c1nc(CN2CCC(C(=O)NCCCN3CCCC(CC(C)C)C3)CC2)c(C)o1 (stereo not drawn) [Compound 53],54.9 µg/mL
24,Cc1ccccc1-c1nc(CN2CCC(C(=O)NCCCN3CCCC(C)C3)CC2)c(C)o1 (stereo not drawn) [Compound 6],>67.0 µg/mL
25,Cc1ccccc1-c1nc(CN2CCC(C(=O)NCCCN3CCOCC3)CC2)c(C)o1 [Compound 12],>65.0 µg/mL
26,COc1cccc(Cl)c1-c1nc(CN2CCC(C(=O)NCCCN3C[C@H](C)C[C@H](C)C3)CC2)c(C)o1 [Compound 42],>76.0 µg/mL

# Same assay, conditions: pH 7.4
row,Compound,Sol.
1,Cc1oc(-c2c(Br)cccc2Br)nc1CN1CCC(C(=O)NCCCN2C[C@H](C)C[C@H](C)C2)CC1 [Compound 43],62.4 µg/mL
2,Cc1oc(-c2c(Cl)cccc2Cl)nc1CN1CCC(C(=O)NCCCN2C[C@H](C)C[C@H](C)C2)CC1 [Compound 35],>77.0 µg/mL
